Test results published in ChEMBL document CHEMBL4342451, “α-Glucosidase Inhibitory Isomeric Corniculatolides from the Stems of the Indian Mangrove Plant, Xylocarpus granatum” (J Nat Prod, 2020).
Activity calls are given as the source filed them. The calls are words filed in the database; no cut-off is given here.

Key:
[1] = Inhibition of Saccharomyces cerevisiae alpha-glucosidase assessed as decrease in release of p-nitrophenol using pNPG as substrate preincubated for 15 min followed by substrate addition and measured after 5 mins by spectrophotometric method
MIA PaCa-2 = test: Cytotoxicity against human MIAPaCa2 cells assessed as reduction in cell viability at 1 to 100 uM incubated for 24 to 48 hrs by SRB assay; format: functional, cell-based
DU-145 = test: Cytotoxicity against human DU145 cells assessed as reduction in cell viability at 1 to 100 uM incubated for 24 to 48 hrs by SRB assay; format: functional, cell-based
MCF7 = test: Cytotoxicity against human MCF7 cells assessed as reduction in cell viability at 1 to 100 uM incubated for 24 to 48 hrs by SRB assay; format: functional, cell-based
HCT-116 = test: Cytotoxicity against human HCT116 cells assessed as reduction in cell viability at 1 to 100 uM incubated for 24 to 48 hrs by SRB assay; format: functional, cell-based

Row | IC50 [1] | SMILES | Activity (MIA PaCa-2) | Activity (DU-145) | Activity (MCF7) | Activity (HCT-116)
1 | 187 µM | O=C1CCc2ccc(O)c(c2)Oc2ccc(cc2)CCCO1 [CORNICULATOLIDE A] | inactive | inactive | inactive | inactive
2 | 65.4 µM | COc1ccc2cc1Oc1ccc(cc1)CCCOC(=O)CC2 | inactive | inactive | inactive | inactive
3 | 24.8 µM | O=C1CCc2cc(O)c(O)c(c2)Oc2ccc(cc2)CCCO1 | inactive | inactive | inactive | inactive
4 | > 200 µM | COc1c(O)cc2cc1Oc1ccc(cc1)CCCOC(=O)CC2 | inactive | inactive | inactive | inactive
5 | 72.3 µM | COc1cc2cc(c1OC)Oc1ccc(cc1)CCCOC(=O)CC2 | inactive | inactive | inactive | inactive
6 | 12.2 µM | C[C@H]1O[C@H](O[C@H]2[C@H](O)[C@@H](O)[C@@H](O[C@H]3[C@H](O)[C@@H](O)C(O)O[C@@H]3CO)O[C@@H]2CO)[C@H](O)[C@@H](O)[C@@H]1N[C@H]1C=C(CO)[C@@H](O)[C@H](O)[C@H]1O (stereo partly specified) [ACARBOSE] |  |  |  | 
7 | 134 µM | COc1cc2cc(c1OC)Oc1ccc(cc1)CCC(=O)OCCC2 | inactive | inactive | inactive | inactive
8 | > 200 µM | O=C1CCc2ccc(cc2)Oc2cc(ccc2O)CCCO1 [ISOCORNICULATOLIDE A] | inactive | inactive | inactive | inactive
